Reference: patent US20160009693A1, “HERBICIDAL COMPOUNDS” (SYNGENTA LIMITED, priority 2013, published 2016)

Legend:
Type in all cases: in vivo
Settings in all cases: applied at 1000 g/h, evaluated after 13 days
Solanum nigrum (SOLNI) [1] = test: Herbicidal glasshouse test, pre-emergence, SOLNI
Outline: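 This pre-emergence glasshouse herbicide test used Solanum nigrum sown in standard soil. One day after sowing, pots were sprayed with the compound in acetone/water (50:50) with 0.5% Tween 20. They were then grown at 24/16° C., with 14 hours light and 65% humidity, and watered twice daily. Percentage damage was scored after 13 days on a five point scale, where 5=80-100% and 1=0-19%.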

[2] = tested on: Ipomoea hederacea (IPOHE); test: Herbicidal glasshouse test, post-emergence, IPOHE
[3] = tested on: Echinochloa crus-galli (ECHCG); test: Herbicidal glasshouse test, post-emergence, ECHCG
Outline: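 In this post-emergence glasshouse test, barnyard grass (ECHCG) was cultivated for 8 days under controlled conditions (24/16° C. day/night, 14 hours light, 65% humidity). It was then sprayed with an aqueous solution of the technical compound in acetone / water (50:50) with 0.5% Tween 20. Plants were kept under the same conditions and watered twice daily. After 13 days, percentage damage was rated on a five point scale (5=80-100%; 1=0-19%).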

Setaria faberi (SETFA) [4] = test: Herbicidal glasshouse test, pre-emergence, SETFA
[5] = tested on: Echinochloa crus-galli (ECHCG); test: Herbicidal glasshouse test, pre-emergence, ECHCG
Outline: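 In this pre-emergence glasshouse test, ECHCG seeds sown in pots of standard soil were sprayed one day after sowing with the test material in acetone/water (50:50) containing 0.5% Tween 20. Plants were kept at 24/16° C., 14 hours light, 65% humidity, and watered twice daily. Percentage damage was rated after 13 days on a 1–5 scale.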

[6] = tested on: Alopecurus myosuroides (ALOMY); test: Herbicidal glasshouse test, pre-emergence, ALOMY
[7] = tested on: Amaranthus retoflexus (AMARE); test: Herbicidal glasshouse test, pre-emergence, AMARE
Outline: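 This pre-emergence glasshouse herbicide test used Amaranthus retoflexus sown in standard soil. After one day of cultivation, an aqueous spray made from the technical ingredient in 50:50 acetone/water with 0.5% Tween 20 was applied. Pots stayed at 24/16° C., 14 hours light, 65% humidity, with twice-daily watering. Damage was rated on a five point scale (1=0-19% up to 5=80-100%).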

[8] = tested on: Ipomoea hederacea (IPOHE); test: Herbicidal glasshouse test, pre-emergence, IPOHE
[9] = tested on: Amaranthus retoflexus (AMARE); test: Herbicidal glasshouse test, post-emergence, AMARE
Outline: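 This post-emergence glasshouse test used AMARE plants raised in standard soil for 8 days under controlled conditions (24/16° C. day/night, 14 hours light, 65% humidity). Foliage was sprayed with formulated compound in acetone/water (50:50) containing 0.5% Tween 20. Plants were then watered twice daily, and after 13 days percentage damage was rated on a five point scale.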

[10] = tested on: Alopecurus myosuroides (ALOMY); test: Herbicidal glasshouse test, post-emergence, ALOMY
Setaria faberi (SETFA) [11] = test: Herbicidal glasshouse test, post-emergence, SETFA
Outline: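 This post-emergence glasshouse herbicide test used potted Setaria faberi. Plants were cultivated for 8 days under controlled conditions (24/16° C. day/night, 14 hours light, 65% humidity) and then treated with an aqueous spray made from an acetone/water (50:50) solution containing 0.5% Tween 20. After 13 days of further growth with twice-daily watering, damage was rated on a five point scale (5=80-100%; 1=0-19%).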

Solanum nigrum (SOLNI) [12] = test: Herbicidal glasshouse test, post-emergence, SOLNI

Structure (SMILES)	PRE Application SOLNI, percentage damage (five point scale) (Solanum nigrum (SOLNI) [1])	POST Application IPOHE, percentage damage (five point scale) [2]	POST Application ECHCG, percentage damage (five point scale) [3]	PRE Application SETFA, percentage damage (five point scale) (Setaria faberi (SETFA) [4])	PRE Application ECHCG, percentage damage (five point scale) [5]	PRE Application ALOMY, percentage damage (five point scale) [6]	PRE Application AMARE, percentage damage (five point scale) [7]	PRE Application IPOHE, percentage damage (five point scale) [8]	POST Application AMARE, percentage damage (five point scale) [9]	POST Application ALOMY, percentage damage (five point scale) [10]	POST Application SETFA, percentage damage (five point scale) (Setaria faberi (SETFA) [11])	POST Application SOLNI, percentage damage (five point scale) (Solanum nigrum (SOLNI) [12])
Cn1nnnc1NC(=O)c1nn(C)c(=O)n(Cc2c(Cl)cccc2Cl)c1=O [Compound 1.072]	5 (5=80-100%)	4 (4=60-79%)	4 (4=60-79%)	2 (2=20-39%)	5 (5=80-100%)	5 (5=80-100%)	5 (5=80-100%)	3 (3=40-59%)	5 (5=80-100%)	4 (4=60-79%)	4 (4=60-79%)	5 (5=80-100%)
Cn1nnnc1NC(=O)c1nn(C)c(=O)n(Cc2ccc(F)cc2)c1=O [Compound 1.073]	5 (5=80-100%)	5 (5=80-100%)	3 (3=40-59%)	1 (1=0-19%)	5 (5=80-100%)	5 (5=80-100%)	5 (5=80-100%)	5 (5=80-100%)	5 (5=80-100%)	2 (2=20-39%)	2 (2=20-39%)	5 (5=80-100%)
Cc1cc(C)cc(Cn2c(=O)c(C(=O)Nc3nnnn3C)nn(C)c2=O)c1 [Compound 1.074]	5 (5=80-100%)	2 (2=20-39%)	3 (3=40-59%)	1 (1=0-19%)	4 (4=60-79%)	5 (5=80-100%)	5 (5=80-100%)	3 (3=40-59%)	5 (5=80-100%)	4 (4=60-79%)	1 (1=0-19%)	5 (5=80-100%)
Cc1cc(Cn2c(=O)c(C(=O)Nc3nnnn3C)nn(C)c2=O)ccc1F [Compound 1.075]	5 (5=80-100%)	5 (5=80-100%)	3 (3=40-59%)	1 (1=0-19%)	5 (5=80-100%)	5 (5=80-100%)	5 (5=80-100%)	5 (5=80-100%)	5 (5=80-100%)	2 (2=20-39%)	1 (1=0-19%)	5 (5=80-100%)
Cn1nnnc1NC(=O)c1nn(C)c(=O)n(Cc2cccc(F)c2C(F)(F)F)c1=O [Compound 1.076]	5 (5=80-100%)	5 (5=80-100%)	5 (5=80-100%)	5 (5=80-100%)	5 (5=80-100%)	5 (5=80-100%)	5 (5=80-100%)	5 (5=80-100%)	5 (5=80-100%)	5 (5=80-100%)	5 (5=80-100%)	5 (5=80-100%)
COc1ccc(F)c(Cn2c(=O)c(C(=O)Nc3nnnn3C)nn(C)c2=O)c1Cl [Compound 1.077]	4 (4=60-79%)	4 (4=60-79%)	4 (4=60-79%)	2 (2=20-39%)	4 (4=60-79%)	4 (4=60-79%)	3 (3=40-59%)	4 (4=60-79%)	3 (3=40-59%)	4 (4=60-79%)	2 (2=20-39%)	4 (4=60-79%)
Cc1cc(Cn2c(=O)c(C(=O)Nc3nnnn3C)nn(C)c2=O)cc(C)c1F [Compound 1.078]	5 (5=80-100%)	5 (5=80-100%)	4 (4=60-79%)	1 (1=0-19%)	2 (2=20-39%)	2 (2=20-39%)	5 (5=80-100%)	2 (2=20-39%)	5 (5=80-100%)	2 (2=20-39%)	2 (2=20-39%)	5 (5=80-100%)
Cn1nnnc1NC(=O)c1nn(C)c(=O)n(Cc2cccc(C(F)F)c2)c1=O [Compound 1.079]	5 (5=80-100%)	5 (5=80-100%)	5 (5=80-100%)	1 (1=0-19%)	5 (5=80-100%)	5 (5=80-100%)	5 (5=80-100%)	4 (4=60-79%)	5 (5=80-100%)	4 (4=60-79%)	2 (2=20-39%)	5 (5=80-100%)
